The results in this text go back to ChEMBL document CHEMBL4387736, “Anticancer saponin OSW-1 is a novel class of selective Golgi stress inducer” (Bioorg Med Chem Lett, 2019).

Data set [1] has as its system HeLa. Description: Induction of ER stress in human HeLa cells assessed as effect on eIF2alpha level at 1 uM incubated for 1 to 24 hrs by immunoblotting analysis. The class given is functional, cell-based.
For data set [2], the target named is T1, Oxysterol-binding protein 1 (Homo sapiens) (UniProt P22059).
T1 sequence (whole entry): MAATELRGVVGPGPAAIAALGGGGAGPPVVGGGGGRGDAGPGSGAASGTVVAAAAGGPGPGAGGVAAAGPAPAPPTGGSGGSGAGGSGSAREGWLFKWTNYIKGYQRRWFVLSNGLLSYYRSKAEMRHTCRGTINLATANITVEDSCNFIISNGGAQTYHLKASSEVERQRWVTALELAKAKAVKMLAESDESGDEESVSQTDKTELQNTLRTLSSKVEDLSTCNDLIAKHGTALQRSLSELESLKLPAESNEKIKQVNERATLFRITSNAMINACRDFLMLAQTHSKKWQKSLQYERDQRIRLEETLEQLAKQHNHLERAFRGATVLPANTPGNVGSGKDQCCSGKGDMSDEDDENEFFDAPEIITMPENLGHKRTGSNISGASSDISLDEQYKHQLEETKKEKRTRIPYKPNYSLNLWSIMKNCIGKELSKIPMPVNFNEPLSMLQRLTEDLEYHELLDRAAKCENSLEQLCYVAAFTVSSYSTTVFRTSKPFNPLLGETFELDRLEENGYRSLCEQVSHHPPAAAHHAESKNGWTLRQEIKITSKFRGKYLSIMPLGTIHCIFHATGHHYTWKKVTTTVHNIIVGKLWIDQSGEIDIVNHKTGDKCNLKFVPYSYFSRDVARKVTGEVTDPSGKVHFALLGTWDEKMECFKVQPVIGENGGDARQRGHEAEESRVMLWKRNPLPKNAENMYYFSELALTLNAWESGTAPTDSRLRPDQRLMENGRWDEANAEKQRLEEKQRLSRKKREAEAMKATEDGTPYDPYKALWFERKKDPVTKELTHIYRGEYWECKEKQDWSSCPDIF
The data set can be described thus: Induction of OSBP localization in golgi apparatus of human HeLa cells assessed as dispersion of giantin in to cytosol at 2 uM incubated for 6 hrs by immunofluorescence microscopic method. It counts as cell-based.

In data set [3] the target is T1, Oxysterol-binding protein 1 (Homo sapiens). The data set can be described thus: Inhibition of OSBP in human HeLa cells assessed as induction of golgi stress by measuring increase in TFE3-mediated GCP60 mRNA expression at 2 uM incubated for 12 hrs. It counts as cell-based.
Data set [4] has the same target. Description: Induction of OSBP localization in golgi apparatus of human HeLa cells assessed as induction of cytosolic OSBP aggregation into vesicular structures at Golgi at 0.5 uM by eYFP detection based time-lapse imaging. The class given is cell-based.
For data set [5] the target is unchanged. The data set can be described thus: Induction of OSBP localization in golgi apparatus of human HeLa cells assessed as dispersion of GM130 in to cytosol at 2 uM incubated for 6 hrs by immunofluorescence microscopic method. The class given is cell-based.
The target is the same in data set [6]. Description: Induction of OSBP localization in golgi apparatus of human HeLa cells assessed as increase in colocalization of 58K golgi protein at 5 nM incubated for 30 mins by immunofluorescence imaging method. It counts as cell-based.
In data set [7] the test system is HeLa. The data set can be described thus: Induction of ER stress in human HeLa cells assessed as effect on pATF6(P) level at 1 uM incubated for 1 to 24 hrs by immunoblotting analysis. It counts as functional, cell-based. Background: Immunoblotting shows a protein as a band on a membrane.
Data set [8] relates to Panel NCI-60 (60 carcinoma cell lines). The data set can be described thus: Growth inhibition of human NCI60 cells. The class given is functional.
For data set [9], the target named is T1, Oxysterol-binding protein 1 (Homo sapiens). The data set can be described thus: Inhibition of OSBP in human HeLa cells assessed as induction of golgi stress by measuring TFE3 nuclear translocation at 2 uM incubated for 4 hrs by immunofluorescence imaging analysis. It counts as cell-based.
Data set [10] shares this target. The data set can be described thus: Inhibition of OSBP in human HeLa cells assessed as induction of golgi stress by measuring upregulation of ARF4 mRNA expression at 2 uM incubated for 12 hrs. It counts as cell-based.
Data set [11] concerns HeLa. Description: Induction of ER stress in human HeLa cells assessed as effect on CHOP level at 1 uM incubated for 1 to 24 hrs by immunoblotting analysis. It counts as functional, cell-based.
Data set [12] addresses T1, Oxysterol-binding protein 1 (Homo sapiens). The data set can be described thus: Inhibition of OSBP in human HeLa cells assessed as induction of golgi stress by measuring increase in TFE3-mediated GM130 mRNA expression at 2 uM incubated for 12 hrs. It counts as cell-based.
Data set [13] has the same target. The data set can be described thus: Inhibition of OSBP in human HeLa cells assessed as induction of golgi stress by measuring increase in TFE3-mediated SIAT4A mRNA expression at 2 uM incubated for 12 hrs. It counts as cell-based.
In data set [14] the test system is HeLa. Description: Induction of ER stress in human HeLa cells assessed as effect on BiP mRNA level at 2 uM incubated for 1 1 hrs by qRT-PCR analysis. The class given is functional, cell-based. For orientation: In qPCR the cycle at which signal appears reflects the starting amount.
Data set [15] concerns the target T1, Oxysterol-binding protein 1 (Homo sapiens). The data set can be described thus: Inhibition of OSBP in human HeLa cells assessed as induction of golgi stress by measuring increase in TFE3-mediated UAP1L1 mRNA expression at 2 uM incubated for 12 hrs. It counts as cell-based.
Data set [16] relates to HeLa. Description: Induction of ER stress in human HeLa cells assessed as effect on ATF4 level at 1 uM incubated for 1 to 24 hrs by immunoblotting analysis. The class given is functional, cell-based.
For data set [17], the system named is HeLa. Description: Induction of ER stress in human HeLa cells assessed as effect on ERdj4 mRNA level at 2 uM incubated for 1 1 hrs by qRT-PCR analysis. It counts as functional, cell-based.
For data set [18], the system named is HeLa. Description: Induction of ER stress in human HeLa cells assessed as effect on pXBP1(S) level at 1 uM incubated for 1 to 24 hrs by immunoblotting analysis. It counts as functional, cell-based.
The target in data set [19] is T1, Oxysterol-binding protein 1 (Homo sapiens). Description: Inhibition of OSBP in human HeLa cells assessed as induction of golgi stress by measuring TFE3(S)/TFE3(L) dephosphorylation at 1 uM incubated for 2 hrs by Western blot analysis. It counts as cell-based.
The test system of data set [20] is HeLa. The data set can be described thus: Induction of ER stress in human HeLa cells assessed as effect on P-eIF2alpha level at 1 uM incubated for 1 to 24 hrs by immunoblotting analysis. It counts as functional, cell-based.
Data set [21] deals with T1, Oxysterol-binding protein 1 (Homo sapiens). Description: Inhibition of OSBP in human HeLa cells assessed as induction of golgi stress by measuring downregulation of HSP47 mRNA expression at 2 uM incubated for 12 hrs. The class given is cell-based.
Data set [22] relates to HeLa. The data set can be described thus: Induction of ER stress in human HeLa cells assessed as effect on CHOP mRNA level at 2 uM incubated for 1 1 hrs by qRT-PCR analysis. The class given is functional, cell-based.
Data set [23] concerns HeLa. The data set can be described thus: Induction of ER stress in human HeLa cells assessed as effect on pATF6(N) level at 1 uM incubated for 1 to 24 hrs by immunoblotting analysis. The class given is functional, cell-based.
Data set [24] concerns the target T1, Oxysterol-binding protein 1 (Homo sapiens). The data set can be described thus: Inhibition of OSBP in human HeLa cells assessed as induction of golgi stress by measuring GASE transactivation at 1 uM incubated for 24 hrs by GASE-luciferase reporter gene assay. It counts as cell-based.
A short description of data set [25]: Drug localization in golgi apparatus of human HeLa cells at 0.5 uM by fluorescence microscopy. The class given is ADME, subcellular.

Active and inactive are the calls of the source. The rule behind the calls is not given here.

Turning to `COc1ccc(C(=O)O[C@H]2[C@H](O[C@@H]3[C@@H](OC(C)=O)[C@H](O[C@H]4C[C@H]5[C@@H]6CC=C7C[C@@H](O)CC[C@]7(C)[C@H]6CC[C@]5(C)[C@@]4(O)[C@H](C)C(=O)CCC(C)C)OC[C@@H]3O)OC[C@@H](O)[C@@H]2O)cc1`, the result in data set [1], in [7], in data set [11], in data set [14], in [16] and in data set [17] was inactive. Besides, the outcome in data set [18], in data set [20], in data set [22] and in data set [23] was inactive. The result in data set [2], in data set [4], in data set [5] and in [6] was Active. The inhibition entry in data set [3], in data set [9], in data set [10], in data set [12], in data set [13] and in data set [15] was “Active” in each case. The inhibition result in data set [19], in [21] and in [24] was “Active” in each case. The compound also had a GI50 in data set [8] of 0.78 nM.
Compound `COc1ccc(C(=O)O[C@H]2[C@H](O[C@@H]3[C@@H](OC(C)=O)[C@H](O[C@H]4C[C@H]5[C@@H]6CC=C7C[C@@H](O)CC[C@]7(C)[C@H]6CC[C@]5(C)[C@@]4(O)[C@H](C)C(=O)CCC(C)C)OC[C@@H]3O)OC[C@@H](OC(=O)CN(C)c3ccc(S(=O)(=O)N(C)C)c4nonc34)[C@@H]2O)cc1` came in with a GI50 in [8] of 4 nM. Further, in [25], the Drug uptake result is reported as “Active”.

As usually defined, the GI50 is the concentration that inhibits growth by half.
